Patent US9682931B2, “Aryloyl(oxy or amino)pentafluorosulfanylbenzene compound, pharmaceutically acceptable salt thereof, and prodrugs thereof” (UBE INDUSTRIES, LTD., priority 2013, dated 2017)
Values after ≈ are worked out from the molar mass of the structure shown.

Experiments:
Type in all cases: cell-based
[1] = system: Salmonella typhimurium TA98 strain and TA100 strain; experiment: Growth inhibitory action and bactericidal action on salmonella (preincubation method, with and without S9 mix); conditions: TA98 and TA100, presence or absence of S9 mix; for Bactericidal action: lowest concentration at which all bacterial cells were killed; for Growth inhibition: lowest concentration at which growth was inhibited
Procedure: Growth inhibitory action and bactericidal action on salmonella
1) Preparation of Test-Substance Solution
Test substances (compounds listed in Table 1) each were prepared by dissolving it in DMSO when used. Preparation was made in such a manner that the highest dose became 5000 μg/plate and the dose lower than this was prepared by a dilution method. In the table, reference numerals of individual compounds correspond to the numbers of the individual compounds synthesized in the above Examples (the same applies to the following Tables).
Salmonella typhimurium TA98 strain and TA100 strain were used.
These were supplied by Japan Bioassay Research Center, proliferated and examined for genetic properties and other properties in accordance with customary methods, in advance. After these strains were confirmed to have these properties, they are cryopreserved (−80° C.) with a DMSO-added medium; and thawed for use in each test.
3) A cryopreserved strain was thawed and inoculated in a 2.5% aqueous nutrient broth (OXOID No. 2) solution and cultured while shaking at 37° C. for 7 hours to obtain a cell suspension, which was subjected to tests.
A minimum glucose agar plate medium (Vital Media AMT-S, manufactured by Kyokuto Pharmaceutical Industrial Co., Ltd.) was used.
The top agar was prepared when used by blending an aqueous solution of 0.5 mM L-histidine and 0.5 mM D-(+)-biotin with an aqueous solution prepared by adding Bacto Agar (Difco) (0.6%) and sodium chloride (0.5%).
S9 was purchased from Kikkoman; whereas a cofactor was previously prepared in accordance with a method known in the art. They were mixed in a customary method to prepare S9 mix.
Using a test system containing S9 mix and a test system containing no S9 mix, a test was carried out in accordance with a preincubation method. As the dose selection, the highest dose was specified as […], which was then serially diluted in a common ratio of 2 to prepare a total of 15 doses to be used in the test.
To a sterile test tube, a test solution (0.1 mL) and 0.1 M Na-phosphate buffer or S9 mix (0.5 mL) and a cell suspension (0.1 mL) were sequentially dispensed. Pre-incubation was carried out at 37° C. for 20 minutes while shaking. After completion of the pre-incubation, top agar (2 mL) kept warm at 45° C. was added, mixed and placed on a minimum glucose agar plate medium. After solidification, the plate was turned upside down and cultured at 37° C. for 48 hours.
After completion of the culture, the state of microbial growth was observed by a stereomicroscope. After a precipitate on the plate was observed, revertant colonies were counted by the naked eye or a colony counter.
7) Criteria for Determination
Growth of both TA98 and TA100 strains was examined in the presence or absence of S9 mix. Among the resultant concentrations at which growth was inhibited, the lowest concentration was specified as the growth inhibitory concentration. Similarly, the bactericidal concentration was specified as the lowest concentration at which all bacterial cells were killed.

[2] = system: K562 human leukemia-derived cell lines; experiment: K562 human leukemia cell-proliferation inhibition test; conditions: Homo sapiens, K562, 72 h, K562 cells, 72 hours, viable cells counted with trypan blue; read-out: IC50
[3] = system: Staphylococcus aureus MRSAIID 1677 (methicillin-resistant staphylococcus aureus; MRSA); experiment: Antimicrobial test, minimum inhibitory concentration (MIC), MRSA; conditions: 36±1° C., 24 hours
Procedure: Antimicrobial/Antifungal Test
Measurement of the Minimum Inhibitory Concentration (MIC) of a Test Substance
The minimum inhibitory concentration (MIC) of test substances (Compound 3, Compound 7) on a microorganism was measured.
1) Test Microbe (a) Staphylococcus aureus MRSAIID 1677 (methicillin-resistant staphylococcus aureus; MRSA) (b) Trichophyton mentagrophytes NBRC5466 (trichophyton)
2) Preparation of Microbe Solution for Inoculation
Test microbe (a): A strain cryopreserved was smeared on TSA medium and cultured at 36±1° C. for 24 hours. Grown colonies were scraped out and suspended in a test organism preparation solution, filtered with absorbent cotton. The number of cells was controlled to be about 10^6-7 CFU/mL. The test microbe solution prepared was serially diluted by 10-fold and cultured at 36±1° C. for 48 hours and the microbe cells were counted.
3) Serial Dilution of Test Substance
Two-fold serial dilutions of a test substance were prepared in the following procedure. To a test substance (1 mg), a medium (5 mL) for measuring the sensitivity of each microbe strains was added to obtain a stock solution of 200 μg/mL. […]
A test microbe solution (5 μL) was added dropwise to individual wells of the microplate. […] After culture, whether the microbe proliferated or not was determined by the naked eye. […]

| SMILES | Bactericidal action [1] [μg/plate] | Growth inhibition [1] [μg/plate] | IC50 [2] [µg/mL] | MIC [3] [µg/mL] |
| --- | --- | --- | --- | --- |
| O=C(Nc1ccc(S(F)(F)(F)(F)F)cc1)c1cc(O)c(O)c(O)c1 [Compound 3, 4-(3,4,5-trihydroxybenzoylamino)pentafluorosulfanylbenzene] | 625 | 19.5 | 0.81 (≈ 2.18 µM) | 6.3 (≈ 17 µM) |
| O=C(Oc1ccc(S(F)(F)(F)(F)F)cc1)c1cc(O)c(O)c(O)c1 [Compound 7, 4-(3,4,5-trihydroxybenzoyloxy)pentafluorosulfanylbenzene] | 156 | 19.5 | 1.9 (≈ 5.1 µM) | 0.8 (≈ 2.15 µM) |
